# Experimental data: EP1357114A1, “Substituted pyrimidin-2,4(1H,3H)-diones as inhibitors of Matrix Metalloproteinases (MMP)” (IBFB GmbH Privates Institut für biomedizinische Forschung …, priority 2002, dated 2003)
# Target: T1, MMP-2 (Homo sapiens, UniProt P08253)
# T1 construct: endogenous in cells; host or cells: cultured human dermal fibroblasts (secreted into conditioned medium)
# T1 sequence (P08253 110-660): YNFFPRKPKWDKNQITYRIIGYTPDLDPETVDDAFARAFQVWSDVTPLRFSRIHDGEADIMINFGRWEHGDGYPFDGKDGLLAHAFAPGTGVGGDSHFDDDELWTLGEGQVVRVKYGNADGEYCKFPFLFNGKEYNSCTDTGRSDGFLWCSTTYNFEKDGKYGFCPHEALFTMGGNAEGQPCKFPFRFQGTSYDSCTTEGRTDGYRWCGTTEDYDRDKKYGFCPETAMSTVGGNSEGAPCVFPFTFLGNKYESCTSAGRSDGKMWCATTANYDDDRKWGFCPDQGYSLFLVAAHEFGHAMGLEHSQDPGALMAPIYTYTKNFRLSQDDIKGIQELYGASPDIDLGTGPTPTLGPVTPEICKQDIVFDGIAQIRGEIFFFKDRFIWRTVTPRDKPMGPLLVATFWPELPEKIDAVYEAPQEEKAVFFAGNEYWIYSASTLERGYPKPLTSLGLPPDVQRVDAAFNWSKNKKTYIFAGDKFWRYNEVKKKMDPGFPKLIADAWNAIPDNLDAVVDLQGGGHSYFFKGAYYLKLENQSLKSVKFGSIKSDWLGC
# Experiment: Quantitative fluorescence assay for matrix metalloproteinases (cleavage of Mca-Pro-Leu-Gly-Leu-Dpa-Ala-Arg-NH2)
# Assay type: biochemical
# Procedure: MMP-2 (Gelatinase) wird von kultivierten dermalen Fibroblasten in beträchtlichen Mengen in das Kulturmedium abgegeben und ist daher leicht zugänglich. Die sezernierte und inaktive Proform des Enzyms wird durch Behandlung mit organischen Quecksilberverbindungen in die enzymatisch aktive Form überführt.
# Hierzu werden humane dermale Fibroblasten nach etablierten Standardmethoden gewonnen und kultiviert. Aus dem konditionierten Zellmedium wird humane MMP-2 durch folgende Methode gewonnen: 500 ml Zellmedium werden 30 min. bei 10 000 g zentrifugiert und der Überstand mit einem Vol. 2-fach Bindungspuffer (40 mM Tris-HCI pH 7,5 , 10 mM CaCl2, 1 M NaCI, 0,2% (v/v) Triton X-100) versetzt. Dazu gibt man 6 ml Gelatine-Agarose, welche mit Bindungspuffer äquilibriert wurde, und schüttelt für 1 Std. auf Eis. Die beladene Gelatine-Agarose wird in eine Säule überführt und mit mindestens 10 Vol. Bindungspuffer proteinfrei gespült. Die Elution der gebundenen MMP-2 erfolgt mit 2 Gelvolumen Bindungspuffer plus 5% (v/v) DMSO. Das Eluat enthält die humane MMP-2 als inaktives Zymogen in stark angereicherter Form. Fremdproteine sind TIMP-2 und Fibronektin; das letztere kann durch eine Gelfiltration an Sephacryl S-200 abgetrennt werden. Laufpuffer ist 100 mM Tris-HCI pH 7,5, 10 mM CaCl2, 100 mM NaCI, 0,05% (v/v) Brij 35. Die inaktive humane MMP-2 wird durch zweistündige Inkubation bei 37 °C in Gegenwart von 1 mM p-Aminophenylmercuric Acetate (APMA) aktiviert. Zur Beseitigung von APMA nach Aktivierung wird die Probe an Sephadex G-25 in Laufpuffer (s.o.) filtriert.
# Durch enzymatische Spaltung des synthetischen Substrates Mca-Pro-Leu-Gly-Leu-Dpa-Ala-Arg-NH2 durch die jeweilige Kollagenase, wird die fluoreszente Gruppe Mca ((7-Methoxycoumarin-4-yl)acetyl) vom internen Quencher Dpa ((N-3-(2,4-dinitrophenyl)-L-2,3-diaminopropienyl) getrennt. Dabei erfolgt eine starke Zunahme der Fluoreszenz im Messansatz, die am Fluorimeter quantifiziert werden kann (λex 328 nm, λem 393 nm) und innerhalb der ersten Minuten linear verläuft. Eine gewisse Spezifität des Tests für Matrix-Metalloproteinasen ergibt sich einerseits aus der Aminosäuresequenz -Pro-Leu-Gly-Leu- im Substrat und andererseits durch die gewählten Inkubationsbedingungen. Matrix-Metalloproteinasen spalten das Substrat an der Bindung Gly-Leu. Gemessen wird die proteolytische Restaktivität vorinkubierter Ansätze von Enzym und Inhibitor, wobei die Substrat- und Enzymkonzentration konstant gehalten und die Inhibitorkonzentration variiert wurde. Es wurden für jeden getesteten Inhibitor drei Messreihen mit unterschiedlicher Substratkonzentration aufgenommen. Aus der zeitabhängigen Fluoreszenzzunahme wird die Enzymaktivität in Fluoreszenzeinheiten pro min berechnet. Die Bestimmung der Ki-Werte erfolgte graphisch nach der Methode von DIXON (1953) durch Auftragung der reziproken Reaktionsgeschwindigkeit 1/v (y-Achse) gegen Inhibitorkonzentration (x-Achse).
# 1984 µl Messpuffer (100mM Tris-HCI pH 7,5, 100 mM NaCI, 10 mM CaCl2, 0,05% Brij 35 bzw. 50 mM MES-NaOH, pH 6.0, 10 mM CaCl2, 100 mM NaCI, 0.05% Brij 35 im Fall der KaDo MMP-3) 2 µl Inhibitor, gelöst in DMSO, bzw. DMSO allein (nichtinhibierender Ansatz) 4 µl Enzym • 5 min. Vorinkubation des Enzym-Inhibitor-Gemischs bei Raumtemperatur unter Rühren • Start der Reaktion mit 10 µl Substrat gelöst in DMSO • Aufzeichnung der zeitabhängigen Fluoreszenzzunahme über 2 - 10 min.
Compound,MMP-2 Hemmung (bei 10 µM) [% Hemmung bei 10 µM],further results
"COc1cc2[nH]c(=O)n(CC(S)CS)c(=O)c2cc1OC (racemic) [Beispiel 7, (R,S)-3-(2,3-Dimercaptopropyl)-6,7-dimethoxy-chinazolin-2,4-(1H,3H)dion]",,MMP-2 Hemmung (bei 1 µM): 20% Hemmung bei 1 µM
"O=c1[nH]c2ccc(Cl)cc2c(=O)n1CC(S)CS (racemic) [Beispiel 4, (R,S)-6-Chlor-3-(2,3-dimercaptopropyl)chinazolin-2,4-(1H,3H)dion]",50,
"Cc1cccc2[nH]c(=O)n(CC(S)CS)c(=O)c12 (racemic) [Beispiel 5, (R,S)-3-(2,3-Dimercaptopropyl)-5-methyl-chinazolin-2,4-(1H,3H)dion]",50,
"O=C(NCc1ccccc1)c1ccc2c(=O)n(CC(S)CS)c(=O)[nH]c2c1 (racemic) [Beispiel 8, (R,S)-N-Benzyl-3-(2,3-dimercaptopropyl)-2,4-dioxo-1,2,3,4-tetrahydrochinazolin-7-carboxamide]",,MMP-2 Hemmung (bei 5 µM): 50% Hemmung bei 5µM
"O=c1[nH]c2ccccc2c(=O)n1CC(S)CS (racemic) [Beispiel 1, (R,S)-3-(2,3-Dimercaptopropyl)chinazolin-2,4-(1H,3H)dion]",70,
"O=c1[nH]c2sc(-c3ccccc3)cc2c(=O)n1CC(S)CS (racemic) [Beispiel 11, (R,S)-3-(2,3-Dimercaptopropyl)-6-phenylthieno[2,3-d]pyrimidin-2,4(1H,3H)-dion]",,MMP-2 Hemmung (bei 1 µM): 15% Hemmung bei 1 µM
"O=c1[nH]c2ccsc2c(=O)n1CC(S)CS (racemic) [Beispiel 9, (R,S)-3-(2,3-Dimercaptopropyl)thieno[3,2-d]pyrimidin-2,4(1H,3H)-dion]",,MMP-2 Hemmung (bei 3 µM): 50% Hemmung bei 3 µM
"O=c1[nH]c2cc(Cl)ccc2c(=O)n1CC(S)CS (racemic) [Beispiel 3, (R,S)-7-Chlor-3-(2,3-dimercaptopropyl)chinazolin-2,4-(1H,3H)dion]",90,
"O=c1[nH]c2sc3c(c2c(=O)n1CC(S)CS)CCCC3 (racemic) [Beispiel 10, (R,S)-3-(2,3-Dimercaptopropyl)-5,6,7,8-tetrahydro[1]benzothieno[2,3-d]pyrimidin-2,4(1H,3H)-dion]",52,
